Values after ≈ are worked out from the molar mass of the structure shown. Read-outs that look alike come from different tables or passages of the source. Residues, ends and D or L forms follow the SMILES beside them.
How the values were obtained:
MTT cytotoxicity assay = format: cell-based, human; conditions: human; for viability at 72 h, 0.78 µM / viability at 72 h, 12.5 µM / viability at 72 h, 0.39 µM / viability at 72 h, 1.57 µM / viability at 72 h, 3.13 µM / viability at 72 h, 6.25 µM / viability at 72 h, 25 µM / viability at 72 h, 50 µM / viability at 72 h, 100 µM: HEK293T cells
Protocol: (§1) To determine the cytotoxicity of the peptides, we used the MTT (3-(4,5)-dimethylthiahiazo (-z-y1)-3,5-di-phenytetrazoliumromide) dye reduction assay against HEK293T cells. In brief, the 100 μL of cells in 96-well plate were incubated for 24 h at 37 °C, 5% CO2, and then peptide solutions (concentrations ranging from 100 to 0.39 μM) were added and further incubated for 72 h. MTT solution (5 mg/mL) was added and further incubated for 4 h. After incubation, the precipitated MTT formazan crystal was dissolved by addition of dimethyl sulfoxide (DMSO). […]

K. pneumoniae 3026 = format: cell-based, Klebsiella pneumoniae
From the text: (§2) Bacteria were cultivated in Luria-Bertani (LB) broth.

[1] = system: K. pneumoniae ATCC 700603; format: cell-based, Klebsiella pneumoniae
From the text: as §2

A. baumannii 1318 = format: cell-based, Acinetobacter baumannii
From the text: as §2

A. baumannii 1337 = format: cell-based, Acinetobacter baumannii
From the text: as §2

[2] = system: Gram-negative bacterial strains; format: cell-based
From the text: as §2

E. coli ATCC 25922 = format: cell-based, Escherichia coli
From the text: as §2

E. coli S = format: cell-based, Escherichia coli
From the text: as §2

MRSA = format: cell-based, Staphylococcus aureus
From the text: as §2

MRSA ATCC 43300 = format: cell-based, Staphylococcus aureus
From the text: as §2

MRSA 3393 = format: cell-based, Staphylococcus aureus
From the text: as §2

MRSA USA 300 = format: cell-based, Staphylococcus aureus
From the text: as §2

sheep red blood cells = experiment: Hemolysis assay; conditions: red cells of sheep, 1 h
Protocol: To evaluate the hemolysis effects of peptides, red blood hemolysis was performed as described with minimum modifications. Sterile defibrated sheep blood was purchased from Guangzhou Hongquan Biotechnology Co., LTD. Blood cells were adjusted to 2 × 10^9 cells/mL in phosphate-buffered saline (PBS, pH 7.4). In total, 98 μL sheep red blood cell suspension was incubated with 2 μL of peptides at different concentrations ranging from 3.13 to 100 µM. After incubation for 1 h at 37 °C, the cells were centrifuged and the absorbance of the supernatant was measured at 450 nm. The value for “zero hemolysis” was determined using sterile PBS, while 100% hemolysis was established using 1.5% (v/v) Triton X-100. Hemolysis of testing sample was calculated as the percentage of Triton X-100-induced hemolysis.

HEK293T cells = experiment: MTT cytotoxicity assay; format: cell-based, human
Protocol: as §1

[3] = OD450, cytotoxicity (Fig 2a), replicates

Structure (SMILES) | IC50 at 72 h (MTT cytotoxicity assay) | viability at 72 h, 0.39 µM (MTT cytotoxicity assay; [3]) | viability at 72 h, 0.78 µM (MTT cytotoxicity assay; [3]) | viability at 72 h, 1.57 µM (MTT cytotoxicity assay; [3]) | viability at 72 h, 3.13 µM (MTT cytotoxicity assay; [3]) | viability at 72 h, 6.25 µM (MTT cytotoxicity assay; [3]) | viability at 72 h, 12.5 µM (MTT cytotoxicity assay; [3]) | viability at 72 h, 25 µM (MTT cytotoxicity assay; [3]) | viability at 72 h, 50 µM (MTT cytotoxicity assay; [3]) | viability at 72 h, 100 µM (MTT cytotoxicity assay; [3]) | MIC Gram- K. p 3026 (K. pneumoniae 3026) | MIC Gram- K. p ATCC 700603 [1] | MIC Gram- A. b 1318 (A. baumannii 1318) | MIC Gram- A. b 1337 (A. baumannii 1337) | MIC Gram- E. coli ATCC 25922 (E. coli ATCC 25922) | MIC Gram- E. coli S (E. coli S) | MIC Gram+ MRSA ATCC 43300 (MRSA ATCC 43300; ATCC 43300) | MIC Gram+ MRSA 3393 (MRSA 3393; 3393) | MIC Gram+ MRSA USA 300 (MRSA USA 300) | HC10 (concentration inducing 10% hemolysis) (sheep red blood cells) | further results
CC[C@H](C)[C@H](NC(=O)[C@H](CCCNC(=N)N)NC(=O)[C@H](CCCNC(=N)N)NC(=O)[C@H](CC(C)C)NC(=O)[C@H](Cc1ccccc1)NC(=O)[C@H](CCCNC(=N)N)NC(=O)[C@@H](N)CCCNC(=N)N)C(=O)N[C@@H](Cc1ccccc1)C(=O)N[C@@H](Cc1ccccc1)C(=O)N[C@@H](Cc1ccccc1)C(=O)N[C@@H](Cc1ccccc1)C(N)=O [HT3] (H-RRFLRRIFFFF-NH2; N-terminus assumed) | 49000 nM | 94% | 98.7% | 96.4% | 97.8% | 94.9% | 99.5% | 91.4% | 59.2% | 24.2% | 6.25 µM (≈ 10 µg/mL) | 6.25 µM (≈ 10 µg/mL) | 6.25 µM (≈ 10 µg/mL) | 6.25 µM (≈ 10 µg/mL) | 6.25 µM (≈ 10 µg/mL) | 25 µM (≈ 40.1 µg/mL) | 1.57 µM (≈ 2.52 µg/mL) | 3.13 µM (≈ 5.02 µg/mL) | 3.13 µM (≈ 5.02 µg/mL) | > 100.0 µM | viability at 72 h, 0.78 µM (MTT cytotoxicity assay; HEK293T, 0.78 µM, read-out: OD450, cytotoxicity (Fig 2a), replicates): 95.8%; viability at 72 h, 12.5 µM (MTT cytotoxicity assay; HEK293T, 12.5 µM, read-out: OD450, cytotoxicity (Fig 2a), replicates): 94.4%; MICs against Gram-negative bacterial strains, such as A. baumannii and Klebsiella pneumoniae [2]: 6.25 µM; MICs against Gram-positive bacterial strains (MRSA): 1.57 to 3.13 µM
CC[C@H](C)[C@H](NC(=O)[C@H](CCCNC(=N)N)NC(=O)[C@H](CCCNC(=N)N)NC(=O)[C@H](CC(C)C)NC(=O)[C@H](Cc1ccccc1)NC(=O)[C@H](Cc1ccccc1)NC(=O)[C@H](Cc1ccccc1)NC(=O)[C@@H](N)Cc1ccccc1)C(=O)N[C@@H](Cc1ccccc1)C(N)=O [F-SHf(R^5)] (H-FFFFLRRIF-NH2; N-terminus assumed) | 4600 nM | 102% | 89.7% | 89.3% | 78.6% | 40.1% | 20.8% | 12.3% | 16.4% | 17.1% | 100 µM (≈ 129 µg/mL) | > 100 µM | 25 µM (≈ 32.3 µg/mL) | 25 µM (≈ 32.3 µg/mL) | 12.5 µM (≈ 16.1 µg/mL) | 50 µM (≈ 64.6 µg/mL) | 1.57 µM (≈ 2.03 µg/mL) | 1.57 µM (≈ 2.03 µg/mL) | 3.13 µM (≈ 4.04 µg/mL) | 7.9 µM | toxicity / cytotoxicity against HEK293T cells (in words) (HEK293T cells): high toxicity
CC[C@H](C)[C@H](NC(=O)[C@H](CCCNC(=N)N)NC(=O)[C@H](CO)NC(=O)[C@H](CC(C)C)NC(=O)[C@H](Cc1ccccc1)NC(=O)[C@H](Cc1ccccc1)NC(=O)[C@H](Cc1ccccc1)NC(=O)[C@H](Cc1ccc(O)cc1)NC(=O)[C@@H](N)Cc1ccc(O)cc1)C(=O)N[C@@H](Cc1ccccc1)C(N)=O [YY-SHf] (H-YYFFFLSRIF-NH2; N-terminus assumed) | – | – | – | – | – | – | – | – | – | – | > 100 µM | > 100 µM | > 100 µM | > 100 µM | > 100 µM | > 100 µM | 6.25 µM (≈ 8.76 µg/mL) | 50 µM (≈ 70.1 µg/mL) | 6.25 µM (≈ 8.76 µg/mL) | – | MICs against MRSA (MRSA): 3.13 to 50 µM
CC[C@H](C)[C@H](NC(=O)[C@H](CCCNC(=N)N)NC(=O)[C@H](CCCNC(=N)N)NC(=O)[C@H](CC(C)C)NC(=O)[C@H](Cc1ccccc1)NC(=O)[C@H](Cc1ccccc1)NC(=O)[C@H](Cc1ccccc1)NC(=O)[C@@H](N)Cc1ccccc1)C(=O)N[C@@H](Cc1ccccc1)C(=O)N[C@@H](CCCNC(=N)N)C(=O)N[C@@H](CCCNC(=N)N)C(N)=O [F-SHf(R^5)-RR] (H-FFFFLRRIFRR-NH2; N-terminus assumed) | 500 nM | 69.1% | 45.9% | 6.12% | – | 3.98% | 2.72% | 3.79% | 2.62% | 1.75% | 12.5 µM (≈ 20 µg/mL) | 25 µM (≈ 40.1 µg/mL) | 12.5 µM (≈ 20 µg/mL) | 12.5 µM (≈ 20 µg/mL) | 12.5 µM (≈ 20 µg/mL) | 6.25 µM (≈ 10 µg/mL) | 1.57 µM (≈ 2.52 µg/mL) | – | 1.57 µM (≈ 2.52 µg/mL) | > 100.0 µM | toxicity / cytotoxicity against HEK293T cells (in words) (HEK293T cells): high toxicity; MICs against the tested Gram-negative bacterial strains [2]: 6.25 to 25 µM; MIC Gram+ MRSA ATCC 43300 (MRSA ATCC 43300): 1.57 µM (≈ 2.52 µg/mL); MIC Gram+ MRSA 3393 (MRSA 3393): 1.57 µM (≈ 2.52 µg/mL)
CC[C@H](C)[C@H](NC(=O)[C@H](CCCNC(=N)N)NC(=O)[C@H](CCCNC(=N)N)NC(=O)[C@H](CC(C)C)NC(=O)[C@H](Cc1ccccc1)NC(=O)[C@H](Cc1ccccc1)NC(=O)[C@H](Cc1ccccc1)NC(=O)[C@@H](N)Cc1ccccc1)C(=O)N[C@@H](Cc1ccccc1)C(=O)N[C@@H](CCCNC(=N)N)C(N)=O [F-SHf(R^5)-R] (H-FFFFLRRIFR-NH2; N-terminus assumed) | 200 nM | 35.2% | 26.2% | 12.3% | 9.86% | 4.46% | 3.13% | 3.84% | 2.63% | 1.58% | 25 µM (≈ 36.2 µg/mL) | 12.5 µM (≈ 18.1 µg/mL) | 12.5 µM (≈ 18.1 µg/mL) | 12.5 µM (≈ 18.1 µg/mL) | 6.25 µM (≈ 9.05 µg/mL) | 12.5 µM (≈ 18.1 µg/mL) | 1.57 µM (≈ 2.27 µg/mL) | – | 1.57 µM (≈ 2.27 µg/mL) | 36.5 µM | toxicity / cytotoxicity against HEK293T cells (in words) (HEK293T cells): high toxicity; MICs against the tested Gram-negative bacterial strains [2]: 6.25 to 25 µM; MIC Gram+ MRSA ATCC 43300 (MRSA ATCC 43300): 1.57 µM (≈ 2.27 µg/mL); MIC Gram+ MRSA 3393 (MRSA 3393): 1.57 µM (≈ 2.27 µg/mL)
CC[C@H](C)[C@H](NC(=O)[C@H](CCCNC(=N)N)NC(=O)[C@H](CO)NC(=O)[C@H](CC(C)C)NC(=O)[C@H](Cc1ccccc1)NC(=O)[C@H](Cc1ccccc1)NC(=O)[C@H](Cc1ccccc1)NC(=O)[C@H](Cc1ccccc1)NC(=O)[C@@H](N)Cc1ccccc1)C(=O)N[C@@H](Cc1ccccc1)C(N)=O [FF-SHf] (H-FFFFFLSRIF-NH2; N-terminus assumed) | – | – | – | – | – | – | – | – | – | – | > 100 µM | > 100 µM | > 100 µM | > 100 µM | > 100 µM | > 100 µM | 50 µM (≈ 68.5 µg/mL) | 3.13 µM (≈ 4.29 µg/mL) | 6.25 µM (≈ 8.56 µg/mL) | – | MICs against MRSA (MRSA): 3.13 to 50 µM

— paper PMC10657444, “Design and evaluation of tadpole-like conformational antimicrobial peptides” (Communications Biology, 2023)
